From patent EP2272817A1, “PAI-1 INHIBITOR” (Institute of Medicinal Molecular Design, Inc., priority 2008, dated 2009) come the findings set out here.

The target of one test is T1, recombinant rat PAI-1 (Rattus norvegicus, UniProt P20961).
T1 sequence (P20961 24-402): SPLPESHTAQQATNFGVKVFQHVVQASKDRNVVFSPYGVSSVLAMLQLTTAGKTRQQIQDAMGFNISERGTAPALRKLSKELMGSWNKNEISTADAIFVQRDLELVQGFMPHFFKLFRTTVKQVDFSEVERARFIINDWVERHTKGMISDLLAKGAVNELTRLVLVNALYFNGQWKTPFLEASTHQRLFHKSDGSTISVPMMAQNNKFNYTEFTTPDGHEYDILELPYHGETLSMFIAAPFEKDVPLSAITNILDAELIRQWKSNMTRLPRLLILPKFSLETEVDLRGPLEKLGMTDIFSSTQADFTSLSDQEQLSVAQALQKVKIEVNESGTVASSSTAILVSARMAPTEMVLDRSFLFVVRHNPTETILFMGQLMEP
The test can be described thus: biochemical. The note with it: read-out: Inhibition Rate of PAI-1 Activity (%).

The target of test [1] is T2, recombinant human PAI-1 (Homo sapiens, UniProt P05121). Kind of test: biochemical.
Test [2] has as its target T2, recombinant human PAI-1. Kind of test: Test Example 2: Human PAI-1 Inhibitory Activity (pH 7.4 HEPES buffer, 10 minutes incubation with two-chain tPA). It is filed as biochemical. Details: purchased Molecular Innovations, Inc. The note with it: read-out: Inhibition Rate of PAI-1 Activity (%). The method, then:
0.1 M HEPES, 0.1 M NaCl. 1 mM EDTA. 0.1 % Polyethylene glycol 8,000 (Hampton Research Corporation),
2 mM Dimethyldecylphoshine oxide [Apo-10] (Fluka Corporation)

For test [3], the target named is T2, recombinant human PAI-1. Kind of test: Test Example 4: Human PAI-1 Inhibitory Activity (amount of PAI-1 bound to plate-coated one-chain tPA, ELISA). As to conditions: human PAI-1 bound to tPA, read-out: Inhibition Rate of PAI-1 Activity (%); for inhibition at 0.3 µM: Compound Concentration 0.3µM; for inhibition at 1 µM: Compound Concentration 1µM; for inhibition at 3 µM: Compound Concentration 3µM. It is filed as biochemical. The arrangement: purchased Molecular Innovations, Inc. The method, then: 100 µl of tPA solution, where one-chain recombinant tPA (hereinafter reffered to as tPA; American diagnostica, inc.) had been diluted with Buffer A to acheive a concentration of 10 µg/ml, was added to each well of a 96-well plate (Nunc Maxisorp), and the plate was incubated for one night at 4 °C to be coated with tPA. Then, after suction of tPA solution from the 96-well plate, the plate was rinsed successively with Buffer A and Buffer B. To Buffer B, solutions of the compound according to the present invention dissolved with DMSO (final DMSO concentration: 0.2 %) and recombinant human PAI-1 (Molecular Innovations, Inc.) were added. The mixtures were blended so that the final concentrations would be 0.1 to 3.0 µM and 50 ng/ml respectively, and were incubated for 15 minutes on ice. These mixed solutions were added to the rinsed 96-well plate at 100 µl/well, and incubated for 60 minutes at room temperature. To prepare a calibration curve, PAI-1 solutions without the compound according to the present invention (solutions where the final concentrations being 100, 50, 25, 12.5, 6.25, 3.13, or 1.56 ng/ml PAI-1) were added at 100 µl/well, and the plate was incubated for 60 minutes at room temperature, as standard.
After incubation, the reaction mixture was removed by suction, and each well was rinsed with Wash Buffer. Next, anti-human PAI-1 monoclonal antibody (PROGEN Inc.) diluted with Buffer C to be 3.0 µg/ml was added to the 96-well plate at 100 µl/well, and the plate was incubated for 1 hour at room temperature. After rinsing each well with Wash Buffer, alkaline phosphatase-labeled goat anti-mouse IgG (H+L) (Jackson ImmunoResearch, Inc.) diluted with Buffer D to be 0.12 µg/ml was added at 100 µl/well, and the plate was incubated for 1 hour at room temperature. After rinsing each well with Wash Buffer, 1.0 mg/ml p-Nitrophenyl Phosphate (SIGMA) was added to the 96-well plate at 100 µl/well to start the reaction. After 30 to 60 minutes, 25 µl of 0.5 N NaOH was added to stop the reaction, and the absorbance was measured at 405 nm using a multiplate reader (GENios; TECAN G.M.B.H.).
Based on the calibration curve prepared from the standard wells, amounts of PAI-1 bound to tPA in the wells that had been treated with the compound according to the present invention were calculated, and the PAI-1 inhibition rates by the compounds according to the present invention were obtained by the following equation. [API-1InhibitionRate(%)] = [1-(amountofPAI-1boundtotPaonthewellbytreatmentwiththecompondaccordingtothepresentinvention)/(amountofPAI-1boundtotPAonthewellbytreatmentwithPAI-1solutionnotincledingthecompondaccordingtotheinvention(solution having the final concentration of 50 nb/ml PAI-1)] × 100 [formula] • <Composition of Buffer A> 0.1 M Tris-HCl, 150 mM NaCl, pH 7.7 • <Composition of Buffer B> 50 mM sodium phosphate, 0.1 M NaCl, 1 mM EDTA, pH 6.6 • <Composition of Buffer C> 50 mM sodium phosphate, 100 mM NaCl, pH 7.4 • <Composition of Buffer D> 0.01 M Tris-HCl, 0.25 M NaCl, pH 8.0 • <Compositon of Wash Buffer> 0.05 % Tween 20, 0.1 % BSA in Buffer A • <Composition of p-Nitrophenyl Phosphate solution> 1 M Diethanolamine 0.5 mM MgCl2, p-Nitrophenyl phosphate, pH 9.8

Where [4] appears, read: read-out: Inhibition Rate of PAI-1 Activity (%), Compound Concentration 5µM.
Setting [5] is: read-out: Inhibition Rate of PAI-1 Activity (%), Compound Concentration 10µM.
Setting [6] is: read-out: Inhibition Rate of PAI-1 Activity (%), Compound Concentration 25µM.
Where [7] appears, read: read-out: Inhibition Rate of PAI-1 Activity (%).

Like-named read-outs stand apart in the source and are kept apart here. Some results are limits rather than exact numbers.

T2 sequence (P05121 24-402): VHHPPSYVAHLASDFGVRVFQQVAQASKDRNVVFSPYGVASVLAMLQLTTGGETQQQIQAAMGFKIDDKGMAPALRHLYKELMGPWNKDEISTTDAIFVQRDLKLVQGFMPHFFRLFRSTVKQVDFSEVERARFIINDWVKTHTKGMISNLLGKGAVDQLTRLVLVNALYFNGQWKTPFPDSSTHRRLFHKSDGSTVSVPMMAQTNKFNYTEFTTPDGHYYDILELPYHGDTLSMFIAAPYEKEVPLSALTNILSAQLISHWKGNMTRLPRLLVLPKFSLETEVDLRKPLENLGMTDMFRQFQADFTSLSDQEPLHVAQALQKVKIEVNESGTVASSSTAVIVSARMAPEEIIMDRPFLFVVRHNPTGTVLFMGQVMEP

On to `CCCCCOc1ccc(-c2ccc(OC(F)(F)F)cc2)cc1N(CCCCc1ccccc1)C(=O)C(=O)O` [Compound 226], for which, at recombinant rat PAI-1, the inhibition at 0.3 µM was found to be 9%, the inhibition at 1 µM stood at 49%, the inhibition at 3 µM was found to be 92% and the inhibition at 10 µM was over 99%. Besides, the inhibition at 5 µM on recombinant human PAI-1 [1] (setting [4]) is 85%. Moreover, on recombinant human PAI-1 [1] (setting [5]), the inhibition at 10 µM is 92%. For the same compound, on recombinant human PAI-1 [2], the inhibition at 0.1 µM was determined as 0%, the inhibition at 0.3 µM is 17%, the inhibition at 1 µM came to 89% and the inhibition at 3 µM amounted to 99%. Besides, at recombinant human PAI-1 [3], the inhibition at 0.3 µM stood at 11%, the inhibition at 1 µM came out at 26% and the inhibition at 3 µM amounted to 65%.
On to `CCC(CC)Oc1ccc(-c2ccc(OC(F)(F)F)cc2)cc1N(Cc1ccc(C(C)(C)C)cc1)C(=O)C(=O)O` [Compound 199], for which, at recombinant rat PAI-1, the inhibition at 0.3 µM amounted to 0%, the inhibition at 1 µM was determined as 35%, the inhibition at 3 µM worked out at 97% and the inhibition at 10 µM is over 99%. Moreover, at recombinant human PAI-1 [1] (setting [4]), the inhibition at 5 µM worked out at 83%. On recombinant human PAI-1 [1] (setting [5]), the inhibition at 10 µM was 89%. Further, at recombinant human PAI-1 [2], the inhibition at 0.1 µM is 9%, the inhibition at 0.3 µM is 13%, the inhibition at 1 µM came to 64% and the inhibition at 3 µM is over 99%. Further, at recombinant human PAI-1 [3], the inhibition at 0.3 µM was 18%, the inhibition at 1 µM worked out at 41% and the inhibition at 3 µM was found to be 73%.
As for `CC(C)(C)c1ccc(COc2cc(Oc3ccc(OC(F)(F)F)cc3)ccc2CCC(=O)O)cc1` [Compound 78], on recombinant rat PAI-1, the inhibition at 0.3 µM amounted to 0%, the inhibition at 1 µM was 4%, the inhibition at 3 µM is 71% and the inhibition at 10 µM was determined as 90%. The inhibition at 5 µM at recombinant human PAI-1 [1] (setting [4]) came to 24%. Also, the inhibition at 10 µM on recombinant human PAI-1 [1] (setting [5]) came to 60%. On recombinant human PAI-1 [1] (setting [6]), the inhibition at 25 µM amounted to 98%. On recombinant human PAI-1 [2], the inhibition at 0.1 µM was determined as 0%, the inhibition at 0.3 µM is 4%, the inhibition at 1 µM stood at 21% and the inhibition at 3 µM is 96%. On recombinant human PAI-1 [3], the inhibition at 0.3 µM is 20%, the inhibition at 1 µM is 39% and the inhibition at 3 µM turned out to be 83%.
In the case of `CCCOc1ccc(N(Cc2ccc(C(C)(C)C)cc2)C(=O)C(=O)O)c(-c2ccc(OC(F)(F)F)cc2)c1` [Compound 198], at recombinant rat PAI-1, the inhibition at 0.3 µM was 4%, the inhibition at 1 µM was determined as 12%, the inhibition at 3 µM was determined as 84% and the inhibition at 10 µM was 89%. Further, the inhibition at 5 µM at recombinant human PAI-1 [1] (setting [4]) was 79%. Also, on recombinant human PAI-1 [1] (setting [5]), the inhibition at 10 µM was determined as 95%. Besides, on recombinant human PAI-1 [1] (setting [6]), the inhibition at 25 µM was 85%. At recombinant human PAI-1 [2], the inhibition at 0.1 µM amounted to 11%, the inhibition at 0.3 µM was 8%, the inhibition at 1 µM worked out at 33% and the inhibition at 3 µM was over 99%. In addition, on recombinant human PAI-1 [3], the inhibition at 0.3 µM stood at 6%, the inhibition at 1 µM came out at 4% and the inhibition at 3 µM was 33%.
For the compound `CC(C)(C)c1ccc(COc2ccc(-c3ccc(OC(F)(F)F)cc3)cc2OCC(=O)O)cc1` [Compound 105], on recombinant rat PAI-1, the inhibition at 0.3 µM was determined as 0%, the inhibition at 1 µM worked out at 6%, the inhibition at 3 µM came out at 74% and the inhibition at 10 µM was found to be 90%. Moreover, the inhibition at 5 µM on recombinant human PAI-1 [1] (setting [4]) turned out to be 38%. In addition, the inhibition at 10 µM on recombinant human PAI-1 [1] (setting [5]) was determined as 76%. Moreover, at recombinant human PAI-1 [1] (setting [6]), the inhibition at 25 µM is over 99%. On recombinant human PAI-1 [2], the inhibition at 0.1 µM is 2%, the inhibition at 0.3 µM turned out to be 3%, the inhibition at 1 µM was 44% and the inhibition at 3 µM was 99%. On recombinant human PAI-1 [3], the inhibition at 0.3 µM came out at 7%, the inhibition at 1 µM came to 4% and the inhibition at 3 µM came to 33%.
Turning to `CC(C)(C)c1ccc(Oc2cc(-c3ccc(OC(F)(F)F)cc3)ccc2CCC(=O)O)cc1` [Compound 80], at recombinant rat PAI-1, the inhibition at 0.3 µM is 0%, the inhibition at 1 µM came out at 11%, the inhibition at 3 µM is 71% and the inhibition at 10 µM was found to be 84%. In addition, at recombinant human PAI-1 [1] (setting [7]), the inhibition at 5 µM amounted to 43%, the inhibition at 10 µM was found to be 82% and the inhibition at 25 µM was 94%. In addition, at recombinant human PAI-1 [2], the inhibition at 0.1 µM worked out at 3%, the inhibition at 0.3 µM was 11%, the inhibition at 1 µM worked out at 44% and the inhibition at 3 µM is over 99%. At recombinant human PAI-1 [3], the inhibition at 0.3 µM was 0%, the inhibition at 1 µM was 0% and the inhibition at 3 µM was determined as 29%.
With `CC(C)(C)c1ccc(Oc2cc(Oc3ccc(OC(F)(F)F)cc3)ccc2CCC(=O)O)cc1` [Compound 90], on recombinant rat PAI-1, the inhibition at 0.3 µM is 0%, the inhibition at 1 µM worked out at 0%, the inhibition at 3 µM stood at 77% and the inhibition at 10 µM was 90%. Besides, on recombinant human PAI-1 [1] (setting [7]), the inhibition at 5 µM amounted to 42%, the inhibition at 10 µM was found to be 83% and the inhibition at 25 µM turned out to be 96%. On recombinant human PAI-1 [2], the inhibition at 0.1 µM stood at 4%, the inhibition at 0.3 µM worked out at 6%, the inhibition at 1 µM was determined as 22% and the inhibition at 3 µM amounted to 97%. For the same compound, on recombinant human PAI-1 [3], the inhibition at 0.3 µM worked out at 2%, the inhibition at 1 µM stood at 9% and the inhibition at 3 µM was found to be 70%.
Regarding `CCCCOc1ccc(-c2ccc(OC(F)(F)F)cc2)cc1N(Cc1ccc(C(C)(C)C)cc1)C(=O)C(=O)O` [Compound 189], on recombinant rat PAI-1, the inhibition at 0.3 µM was determined as 9%, the inhibition at 1 µM came to 32%, the inhibition at 3 µM is 93% and the inhibition at 10 µM was over 99%. Moreover, the inhibition at 5 µM at recombinant human PAI-1 [1] (setting [4]) came to 87%. For the same compound, the inhibition at 10 µM at recombinant human PAI-1 [1] (setting [5]) was 95%. In addition, at recombinant human PAI-1 [2], the inhibition at 0.1 µM stood at 4%, the inhibition at 0.3 µM stood at 2%, the inhibition at 1 µM was 60% and the inhibition at 3 µM is 97%. Besides, on recombinant human PAI-1 [3], the inhibition at 0.3 µM is 16%, the inhibition at 1 µM turned out to be 30% and the inhibition at 3 µM worked out at 70%.
